Measurements: patent US5583138A, “17β-substituted 4-azaandrostane derivatives, pharmaceutical compositions containing them and process for preparing same” (Richter Gedeon Vegyeszeti Gyar Rt., priority 1992, dated 1996)
pIC50: −log10 of the molar value.

The compounds below were run against T1, steroid 5α-reductase enzyme (Homo sapiens, UniProt P31213) (assay: 5α-reductase inhibition: conversion of [3H]-testosterone to DHT and androstanediol by enzyme from human hyperplastic prostate). Conditions: 0.5 μM [3H]-testosterone, 500 μM NADPH, pH=5.1, 37° C., 10 minutes, read-out: IC50 (concentration decreasing the percentage conversion of testosterone by 50% in comparison to the control value).
T1 construct: Frozen human hyperplastic prostate was used for preparation of the enzyme; from tissue; host or cells: human hyperplastic prostate (frozen), sediment of 100000×g ultracentrifugation
T1 sequence (P31213 1-254): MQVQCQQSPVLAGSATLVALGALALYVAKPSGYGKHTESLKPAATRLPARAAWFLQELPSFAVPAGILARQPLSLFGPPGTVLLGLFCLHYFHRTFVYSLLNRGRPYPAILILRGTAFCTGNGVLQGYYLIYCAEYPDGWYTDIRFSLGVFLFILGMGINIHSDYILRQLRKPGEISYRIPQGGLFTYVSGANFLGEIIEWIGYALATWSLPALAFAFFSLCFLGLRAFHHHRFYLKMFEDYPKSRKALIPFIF
Format: biochemical
A pIC50 of 8.06 was found for `C[C@]12C=CC(=O)N[C@@H]1CC[C@@H]1[C@@H]2CC[C@]2(C)[C@@H](C(=O)N3CCCCCCC3)CC[C@@H]12` [17β-(heptamethyleneiminocarbonyl)-3-oxo-4-aza-5α-androst-1-ene] in this work. A pIC50 of 7.74 was found for `CC(C)(C)NC(=O)[C@H]1CC[C@H]2[C@@H]3CC[C@H]4NC(=O)C=C[C@]4(C)[C@H]3CC[C@]12C` [MK-906, 17β-[N-(1,1-Dimethylethyl)carbamoyl]-3-oxo-4-aza-5α-androst-1-ene, reference compound] in this work. A pIC50 of 8.07 was found for `CC1CCCC(C)N1C(=O)[C@H]1CC[C@H]2[C@@H]3CC[C@H]4NC(=O)C=C[C@]4(C)[C@H]3CC[C@]12C` (stereo partly drawn) [17β-(2,6-dimethylpiperidinocarbonyl)-3-oxo-4-aza-5α-androst-1-ene] in this work. A pIC50 of 7.88 was found for `C[C@]12C=CC(=O)N[C@@H]1CC[C@@H]1[C@@H]2CC[C@]2(C)[C@@H](C(=O)N3CCCCCC3)CC[C@@H]12` [17β-(hexamethyleneiminocarbonyl)-3-oxo-4-aza-5α-androst-1-ene] in this work.
